CCN1C(=O)OCC(=O)N1Cc1ccc(Cl)nc1 [Example I-16, 4-(2-chloro-5-pyridylmethyl)-3-ethyl-1,3,4-oxadiazine-2,5-dione]
melting point: 125 to 128 °C
